Data: patent US9469674B2 (HAINAN UNIVERSITY, dated 2016)
“Also recorded” adds a separate entry of the source. Where a SMILES comes first, the peptide text is derived from it. Bridges are numbered along the chain shown (N, C = ends). Where no end group is shown, it is not given here.

Columns and labels:
[1] = target: α7 nAChR (Rattus norvegicus, UniProt Q05941); experiment: cell-based; assay type: cell-based
[2] = target: α2β4 nAChR (Rattus norvegicus, UniProt P12389+P12392); experiment: cell-based; assay type: cell-based
[3] = target: α3β4 nAChR (Rattus norvegicus, UniProt P04757+P12392); experiment: cell-based; assay type: cell-based
[4] = target: α6/α3β4 nAChR (Rattus norvegicus, UniProt P04757+P12392+P43143); experiment: cell-based; assay type: cell-based
[5] = target: α3β2 nAChR (Rattus norvegicus, UniProt P04757+P12390); experiment: cell-based; assay type: cell-based; conditions: for IC50: IC50 (half-blocking dose)
[6] = target: human α6/α3β2β3 nAChR (Homo sapiens, UniProt P17787+P32297+Q15825); experiment: cell-based; assay type: cell-based
[7] = target: α4β4 nAChR (Rattus norvegicus, UniProt P09483+P12392); experiment: cell-based; assay type: cell-based
[8] = target: α2β2 nAChR (Rattus norvegicus, UniProt P12389+P12390); experiment: cell-based; assay type: cell-based
[9] = target: α9α10 nAChR (Rattus norvegicus, UniProt P43144+Q9JLB5); experiment: cell-based
[10] = target: α4β2 nAChR (Rattus norvegicus, UniProt P09483+P12390); experiment: cell-based
[11] = target: α6/α3β2β3 nAChR (Rattus norvegicus, UniProt P04757+P12390+P43143); experiment: cell-based; assay type: cell-based
[12] = system: other nAChRs subtypes; assay type: cell-based; conditions: read-out: IC50 on other nAChRs subtypes (no blocking activity)
[13] = target: α3β2 acetylcholine receptor (Homo sapiens, UniProt P17787+P32297); conditions: read-out: half-blocking dose IC50; cited from earlier work
[14] = target: α6/α3β2β3 acetylcholine receptor; conditions: read-out: half-blocking dose IC50; cited from earlier work
[15] = target: α9α10 acetylcholine receptor (Homo sapiens, UniProt Q9GZZ6+Q9UGM1); conditions: read-out: half-blocking dose IC50; cited from earlier work
[16] = target: α6/α3β4 acetylcholine receptor; conditions: read-out: half-blocking dose IC50; cited from earlier work
[17] = target: α7 acetylcholine receptor (Homo sapiens, UniProt P36544); conditions: read-out: half-blocking dose IC50; cited from earlier work
[18] = target: α3β4 acetylcholine receptor; conditions: read-out: half-blocking dose IC50; cited from earlier work
[19] = system: nAChRs; conditions: cited from earlier work
[20] = target: rat α9α10 nAChR (rat, UniProt P43144); experiment: cell-based or functional assay
[21] = target: rat α3β4 nAChR (rat, UniProt P04757); experiment: cell-based or functional assay
[22] = target: rat α2β2 nAChR (rat, UniProt P12389); experiment: cell-based or functional assay
[23] = target: rat α2β4 nAChR (rat, UniProt P12389); experiment: cell-based or functional assay
[24] = target: rat α3β2 nAChR (rat, UniProt P04757); experiment: cell-based or functional assay
[25] = target: rat α4β4 nAChR (rat, UniProt P09483); experiment: cell-based or functional assay
[26] = target: rat α4β2 nAChR (rat, UniProt P09483); experiment: cell-based or functional assay
[27] = target: rat α7 nAChR (rat, UniProt Q05941); experiment: cell-based or functional assay
[28] = target: rat α6/α3β4 nAChR (rat) (UniProt P12392)
[29] = target: rat α6/α3β2β3 nAChR (rat) (UniProt P12390)

Sequence of α7 nAChR (Q05941 23-502 limits assumed): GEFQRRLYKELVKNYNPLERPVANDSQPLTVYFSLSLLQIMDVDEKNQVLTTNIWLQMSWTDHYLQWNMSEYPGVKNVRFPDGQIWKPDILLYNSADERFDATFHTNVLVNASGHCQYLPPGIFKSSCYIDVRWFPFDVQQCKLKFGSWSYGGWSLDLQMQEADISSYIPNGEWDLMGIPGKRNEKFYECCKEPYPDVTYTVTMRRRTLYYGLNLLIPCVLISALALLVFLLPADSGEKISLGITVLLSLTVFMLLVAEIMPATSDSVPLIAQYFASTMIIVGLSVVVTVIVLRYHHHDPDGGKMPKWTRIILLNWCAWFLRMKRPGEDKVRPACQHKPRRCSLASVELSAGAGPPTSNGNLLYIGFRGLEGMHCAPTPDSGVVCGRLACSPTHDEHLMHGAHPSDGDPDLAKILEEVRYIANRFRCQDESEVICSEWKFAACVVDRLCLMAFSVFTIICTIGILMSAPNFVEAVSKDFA
Sequence of α6/α3β2β3 nAChR (P04757 whole entry, looked up): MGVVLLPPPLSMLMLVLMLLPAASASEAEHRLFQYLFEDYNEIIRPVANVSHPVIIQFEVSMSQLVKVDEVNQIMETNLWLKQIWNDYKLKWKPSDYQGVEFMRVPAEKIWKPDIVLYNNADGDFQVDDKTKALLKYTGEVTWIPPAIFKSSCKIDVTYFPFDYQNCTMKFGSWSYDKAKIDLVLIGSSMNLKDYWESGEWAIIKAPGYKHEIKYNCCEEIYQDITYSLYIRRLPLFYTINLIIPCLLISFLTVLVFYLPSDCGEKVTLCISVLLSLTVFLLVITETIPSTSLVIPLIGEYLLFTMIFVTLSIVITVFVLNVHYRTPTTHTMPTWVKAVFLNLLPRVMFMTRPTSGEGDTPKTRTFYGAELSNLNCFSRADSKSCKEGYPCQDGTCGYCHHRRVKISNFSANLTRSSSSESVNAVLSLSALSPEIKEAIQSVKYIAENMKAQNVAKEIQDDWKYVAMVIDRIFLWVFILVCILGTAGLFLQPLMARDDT
Sequence of α6/α3β2β3 nAChR (P12390 whole entry, looked up): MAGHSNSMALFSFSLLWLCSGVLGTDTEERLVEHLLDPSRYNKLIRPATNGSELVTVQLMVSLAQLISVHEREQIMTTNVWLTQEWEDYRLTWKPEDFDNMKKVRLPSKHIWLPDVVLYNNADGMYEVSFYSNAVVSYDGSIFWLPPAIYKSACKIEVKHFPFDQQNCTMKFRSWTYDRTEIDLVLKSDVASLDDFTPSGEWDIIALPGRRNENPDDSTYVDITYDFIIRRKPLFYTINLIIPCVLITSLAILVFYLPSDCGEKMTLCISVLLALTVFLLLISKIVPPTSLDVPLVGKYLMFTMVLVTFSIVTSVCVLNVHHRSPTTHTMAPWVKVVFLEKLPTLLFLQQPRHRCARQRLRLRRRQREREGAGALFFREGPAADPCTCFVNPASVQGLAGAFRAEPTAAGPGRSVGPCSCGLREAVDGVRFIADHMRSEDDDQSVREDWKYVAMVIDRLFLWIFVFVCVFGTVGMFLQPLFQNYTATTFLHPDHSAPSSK
Sequence of α6/α3β2β3 nAChR (P43143 whole entry, looked up): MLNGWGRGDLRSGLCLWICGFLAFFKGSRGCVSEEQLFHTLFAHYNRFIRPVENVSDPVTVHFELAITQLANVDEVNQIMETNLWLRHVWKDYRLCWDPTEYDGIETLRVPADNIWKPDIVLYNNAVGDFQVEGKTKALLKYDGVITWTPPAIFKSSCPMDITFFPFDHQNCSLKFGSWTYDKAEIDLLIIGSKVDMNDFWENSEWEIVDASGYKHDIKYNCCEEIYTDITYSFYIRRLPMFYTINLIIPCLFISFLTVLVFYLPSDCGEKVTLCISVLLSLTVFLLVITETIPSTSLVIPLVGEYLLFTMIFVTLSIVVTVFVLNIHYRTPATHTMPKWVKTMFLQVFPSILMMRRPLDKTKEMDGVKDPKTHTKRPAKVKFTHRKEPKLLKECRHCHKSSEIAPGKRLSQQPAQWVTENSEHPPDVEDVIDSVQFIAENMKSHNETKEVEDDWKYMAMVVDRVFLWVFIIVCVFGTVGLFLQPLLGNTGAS
Sequence of α6/α3β4 nAChR (P04757 whole entry, looked up): as the sequence (P04757 whole entry, looked up) above
Sequence of α6/α3β4 nAChR (P12392 whole entry, looked up): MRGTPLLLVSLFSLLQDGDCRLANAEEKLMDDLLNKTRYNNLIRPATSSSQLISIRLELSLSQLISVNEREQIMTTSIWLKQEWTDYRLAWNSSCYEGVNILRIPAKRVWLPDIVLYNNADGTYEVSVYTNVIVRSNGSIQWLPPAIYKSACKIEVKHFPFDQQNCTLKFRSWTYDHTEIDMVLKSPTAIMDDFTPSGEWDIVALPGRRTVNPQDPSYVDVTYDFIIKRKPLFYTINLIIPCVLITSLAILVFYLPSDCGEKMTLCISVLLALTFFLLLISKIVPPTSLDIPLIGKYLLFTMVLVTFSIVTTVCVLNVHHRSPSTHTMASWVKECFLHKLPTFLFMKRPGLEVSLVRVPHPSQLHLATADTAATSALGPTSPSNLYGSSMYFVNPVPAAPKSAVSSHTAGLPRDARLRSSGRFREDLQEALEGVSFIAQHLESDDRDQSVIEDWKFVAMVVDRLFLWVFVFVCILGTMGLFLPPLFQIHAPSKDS
Sequence of α6/α3β4 nAChR (P43143 whole entry, looked up): as the sequence (P43143 whole entry, looked up) above
Sequence of α3β2 acetylcholine receptor (P32297 32-505 limits assumed): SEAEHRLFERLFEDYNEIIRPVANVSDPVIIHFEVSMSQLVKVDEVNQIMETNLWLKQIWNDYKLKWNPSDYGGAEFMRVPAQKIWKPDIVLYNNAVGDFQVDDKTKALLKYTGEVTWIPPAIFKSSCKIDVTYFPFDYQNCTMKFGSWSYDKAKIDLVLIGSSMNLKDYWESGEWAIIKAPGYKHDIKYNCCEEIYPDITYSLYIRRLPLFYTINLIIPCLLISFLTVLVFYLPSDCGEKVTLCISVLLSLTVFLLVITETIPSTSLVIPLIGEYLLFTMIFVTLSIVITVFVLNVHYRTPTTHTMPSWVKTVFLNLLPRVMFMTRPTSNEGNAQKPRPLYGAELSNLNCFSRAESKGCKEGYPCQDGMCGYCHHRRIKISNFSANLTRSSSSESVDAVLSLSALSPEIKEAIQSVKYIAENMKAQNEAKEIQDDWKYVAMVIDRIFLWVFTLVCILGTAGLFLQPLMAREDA
Sequence of α3β2 acetylcholine receptor (P17787 26-502 limits assumed): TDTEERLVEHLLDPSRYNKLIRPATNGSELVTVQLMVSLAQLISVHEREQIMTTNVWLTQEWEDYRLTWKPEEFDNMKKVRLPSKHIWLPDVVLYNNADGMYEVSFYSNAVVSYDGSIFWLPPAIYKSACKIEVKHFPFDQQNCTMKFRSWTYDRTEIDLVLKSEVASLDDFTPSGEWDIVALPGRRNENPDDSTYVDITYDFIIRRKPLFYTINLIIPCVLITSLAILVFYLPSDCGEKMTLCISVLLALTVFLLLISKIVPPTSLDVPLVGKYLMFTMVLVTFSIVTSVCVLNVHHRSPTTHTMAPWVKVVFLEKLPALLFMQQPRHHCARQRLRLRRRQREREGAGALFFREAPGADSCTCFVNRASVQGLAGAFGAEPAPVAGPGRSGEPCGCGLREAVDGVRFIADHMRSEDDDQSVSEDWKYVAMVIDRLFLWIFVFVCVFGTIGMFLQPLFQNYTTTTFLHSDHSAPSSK
Sequence of α7 acetylcholine receptor (P36544 23-502 limits assumed): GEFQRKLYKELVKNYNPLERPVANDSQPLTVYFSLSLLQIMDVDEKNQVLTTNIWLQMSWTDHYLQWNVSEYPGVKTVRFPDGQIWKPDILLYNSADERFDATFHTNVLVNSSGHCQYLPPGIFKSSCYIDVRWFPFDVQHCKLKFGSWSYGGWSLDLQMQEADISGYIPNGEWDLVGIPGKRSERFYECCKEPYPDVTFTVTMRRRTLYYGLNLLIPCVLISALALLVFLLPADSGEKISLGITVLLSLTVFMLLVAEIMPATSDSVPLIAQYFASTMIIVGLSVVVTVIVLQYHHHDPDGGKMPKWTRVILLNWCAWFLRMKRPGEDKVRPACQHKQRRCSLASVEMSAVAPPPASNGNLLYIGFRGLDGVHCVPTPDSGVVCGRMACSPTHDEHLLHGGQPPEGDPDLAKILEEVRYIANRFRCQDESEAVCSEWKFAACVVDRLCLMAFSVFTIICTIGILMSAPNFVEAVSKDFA
Sequence of α9α10 acetylcholine receptor (Q9UGM1 26-479 limits assumed): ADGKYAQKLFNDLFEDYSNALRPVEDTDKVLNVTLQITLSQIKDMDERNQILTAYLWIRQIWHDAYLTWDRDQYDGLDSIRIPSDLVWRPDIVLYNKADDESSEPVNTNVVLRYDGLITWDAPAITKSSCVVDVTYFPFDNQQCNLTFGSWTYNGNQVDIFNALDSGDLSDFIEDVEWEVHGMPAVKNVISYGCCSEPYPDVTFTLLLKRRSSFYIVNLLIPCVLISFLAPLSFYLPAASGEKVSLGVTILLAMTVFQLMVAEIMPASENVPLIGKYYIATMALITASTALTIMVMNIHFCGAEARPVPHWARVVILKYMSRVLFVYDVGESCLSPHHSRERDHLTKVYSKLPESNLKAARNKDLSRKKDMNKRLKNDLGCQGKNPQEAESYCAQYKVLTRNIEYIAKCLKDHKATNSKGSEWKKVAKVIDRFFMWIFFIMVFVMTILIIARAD
Sequence of α9α10 acetylcholine receptor (Q9GZZ6 25-450 limits assumed): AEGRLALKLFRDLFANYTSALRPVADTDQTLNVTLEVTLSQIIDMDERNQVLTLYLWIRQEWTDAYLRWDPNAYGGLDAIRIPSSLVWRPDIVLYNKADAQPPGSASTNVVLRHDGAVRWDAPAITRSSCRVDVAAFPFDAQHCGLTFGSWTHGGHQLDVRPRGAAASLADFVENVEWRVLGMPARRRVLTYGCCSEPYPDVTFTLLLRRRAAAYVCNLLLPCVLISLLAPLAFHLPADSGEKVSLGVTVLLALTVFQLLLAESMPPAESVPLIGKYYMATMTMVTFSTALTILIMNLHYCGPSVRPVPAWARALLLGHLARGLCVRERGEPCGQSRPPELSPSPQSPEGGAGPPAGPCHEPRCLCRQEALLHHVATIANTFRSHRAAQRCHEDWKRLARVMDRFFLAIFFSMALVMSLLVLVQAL

CC(C)C[C@@H]1NC(=O)[C@H](CC(=O)O)NC(=O)[C@@H]2CCCN2C(=O)[C@H](Cc2c[nH]cn2)NC(=O)[C@H](CCCCN)NC(=O)[C@H](CC(N)=O)NC(=O)[C@H](CCCNC(=N)N)NC(=O)[C@@H]2CSSC[C@H](NC(=O)CN)C(=O)N[C@@H](CSSC[C@@H](C(=O)NCC(N)=O)NC1=O)C(=O)N[C@@H](CO)C(=O)N[C@@H](CC(=O)O)C(=O)N1CCC[C@H]1C(=O)N1CCC[C@H]1C(=O)N2 [TxIB(G)] (H-GCCSDPPCRNKHPDLCG-NH2; disulfide 2-8, 3-16)
IC50 [1]: > 10 µM
IC50 [2]: > 10 µM
IC50 [3]: > 10 µM
IC50 [4]: > 10 µM
IC50 [5]: > 10 µM
blocking activity on human α6/α3β2β3 nAChR [6]: blocking activity similar to those for rat α6/α3β2β3 nAChR
IC50 [7]: > 10 µM
IC50 [8]: > 10 µM
IC50 [9]: > 10 µM
IC50 [10]: > 10 µM
IC50 [11]: 0.247 µM
Ratio of half-blocking dose (IC50) between TxIB(G) and TxIB [11]: 8.7

CC(C)C[C@@H]1NC(=O)[C@H](CC(=O)O)NC(=O)[C@@H]2CCCN2C(=O)[C@H](Cc2c[nH]cn2)NC(=O)[C@H](CCCCN)NC(=O)[C@H](CC(N)=O)NC(=O)[C@H](CCCNC(=N)N)NC(=O)[C@@H]2CSSC[C@H](NC(=O)CN)C(=O)N[C@@H](CSSC[C@@H](C(N)=O)NC1=O)C(=O)N[C@@H](CO)C(=O)N[C@@H](CC(=O)O)C(=O)N1CCC[C@H]1C(=O)N1CCC[C@H]1C(=O)N2 [TxIB] (H-GCCSDPPCRNKHPDLC-NH2; disulfide 2-8, 3-16)
IC50 [12]: > 10 µM
blocking of ACh-gated current [3]: totally does not block; also recorded: no blocking activity
blocking of ACh-gated current [4]: totally does not block; also recorded: no blocking activity
blocking of ACh-gated current [5]: totally does not block; also recorded: no blocking activity
blocking activity on human α6/α3β2β3 nAChR [6]: blocking activity similar to those for rat α6/α3β2β3 nAChR
Hill slope of dose-response curve [11]: 0.51 (0.41-0.60)
Ratio of half-blocking dose (IC50) between TxIB(G) and TxIB [11]: 1
blocking of ACh-gated current [11]: specifically blocked; also recorded: almost total blocked

CC(C)C[C@@H]1NC(=O)[C@H](CC(=O)O)NC(=O)[C@@H]2CCCN2C(=O)[C@H](Cc2cnc[nH]2)NC(=O)[C@H](CCCCN)NC(=O)[C@H](CC(N)=O)NC(=O)[C@H](CCCNC(=N)N)NC(=O)[C@@H]2CSSC[C@H](NC(=O)CN)C(=O)N[C@@H](CSSC[C@@H](C(N)=O)NC1=O)C(=O)N[C@@H](CO)C(=O)N[C@@H](CC(=O)O)C(=O)N1CCC[C@H]1C(=O)N1CCC[C@H]1C(=O)N2 [TxIB] (H-GCCSDPPCRNKHPDLC-NH2; disulfide 2-8, 3-16)
IC50 [1]: > 10 µM
IC50 [2]: > 10 µM
IC50 [3]: > 10 µM
IC50 [4]: > 10 µM
IC50 [5]: > 10 µM
IC50 [7]: > 10 µM
IC50 [8]: > 10 µM
IC50 [9]: > 10 µM
IC50 [10]: > 10 µM
IC50 [11]: 0.0284 µM

CC[C@H](C)[C@@H]1NC(=O)[C@@H]2CCCN2C(=O)[C@H](CO)NC(=O)[C@H](CCSC)NC(=O)[C@H](C)NC(=O)[C@H](CO)NC(=O)[C@@H]2CSSC[C@H](NC(=O)CN)C(=O)N[C@@H](CSSC[C@@H](C(N)=O)NC1=O)C(=O)N[C@@H](CO)C(=O)N[C@@H](Cc1c[nH]cn1)C(=O)N1CCC[C@H]1C(=O)N[C@@H](C(C)C)C(=O)N2 [TxIC]
blocking of ACh-gated current [1]: totally does not block; also recorded: no blocking activity
IC50 [12]: > 10 µM
Hill slope of dose-response curve [2]: 0.20 (1.48-2.42)
Hill slope of dose-response curve [3]: 0.19 (0.66-1.44)
blocking of ACh-gated current [3]: specifically blocked; also recorded: completely blocked
Hill slope of dose-response curve [4]: 0.26 (0.73-1.87)
blocking of ACh-gated current [7]: totally does not block; also recorded: no blocking activity

GCCSDPRCNYDHPEIC* [Vc1.1]
IC50 [13]: 7.3 µM
IC50 [14]: 0.14 µM
IC50 [15]: 0.019 µM
IC50 [16]: 0.98 µM

GCCSHPACNVNNPHIC* [RegIIA]
IC50 [13]: 0.033 µM
IC50 [17]: 0.103 µM
IC50 [18]: 0.097 µM

GCCSHPACSVNHPELC* [PeIA]
IC50 [13]: 0.023 to 0.0975 µM
IC50 [15]: 0.0069 to 0.0549 µM
IC50 [17]: 1.8 µM
IC50 [18]: 0.48 µM

GCCSYPPCFATNP-DC* [AuIB]
IC50 [18]: 0.75 µM

NGRCC-HPACGKHFN--C* [Ac1.1a]
nAChRs selectivity [19]: Muscle nAChR

RDPCCSNPVCTVHNPQIC* [PIA]
IC50 [13]: 0.0742 µM
IC50 [14]: 0.001 to 0.0017 µM
IC50 [18]: 0.518 µM
IC50 [16]: 0.0126 to 0.0305 µM

RTCCSRPTCRMEYPELC*grr [SrIA/SrIB]
nAChRs selectivity [19]: Muscle nAChR/α4β2

GCCSDPPCRNKHPDLCG (not fully specified; ends and bridges not checked) [α-conotoxin TxIB/Txd4(G)]
IC50 (half-blocking dose) on ACh-gated current [20]: > 10 µM
IC50 (half-blocking dose) on ACh-gated current [21]: > 10 µM
IC50 (half-blocking dose) on ACh-gated current [22]: > 10 µM
IC50 (half-blocking dose) on ACh-gated current [23]: > 10 µM
IC50 (half-blocking dose) on ACh-gated current [24]: > 10 µM
IC50 (half-blocking dose) on ACh-gated current [25]: > 10 µM
IC50 (half-blocking dose) on ACh-gated current [26]: > 10 µM
IC50 (half-blocking dose) on ACh-gated current [27]: > 10 µM
IC50 (half-blocking dose) on ACh-gated current [28]: > 10 µM
IC50 (half-blocking dose) on ACh-gated current [29]: 0.247 µM

GCCSDPPCRNKHPDLC (not fully specified; ends and bridges not checked) [α-conotoxin TxIB/Txd4]
IC50 (half-blocking dose) on ACh-gated current [20]: > 10 µM
IC50 (half-blocking dose) on ACh-gated current [21]: > 10 µM
IC50 (half-blocking dose) on ACh-gated current [22]: > 10 µM
IC50 (half-blocking dose) on ACh-gated current [23]: > 10 µM
IC50 (half-blocking dose) on ACh-gated current [24]: > 10 µM
IC50 (half-blocking dose) on ACh-gated current [25]: > 10 µM
IC50 (half-blocking dose) on ACh-gated current [26]: > 10 µM
IC50 (half-blocking dose) on ACh-gated current [27]: > 10 µM
IC50 (half-blocking dose) on ACh-gated current [28]: > 10 µM
IC50 (half-blocking dose) on ACh-gated current [29]: 0.0284 µM
